Data as given in patent US8268779B2, “Pharmaceutical composition comprising oxyntomodulin derivatives and a method for reducing body weight using the composition” (Merck Sharp & Dohme Corp., priority 2006, dated 2012).

Test system: glucagon-like activity
Assay: Glucagon-like activity in vitro (FIG. 13)

“HαDGTFTSDYSKYLDSRRAQDFVQWLmNTKRNRNNIAC3-CONH2 [OXM117, (mPEG)240 kDa conjugate made with MPEG2-MAL-40K (NEKTAR)]” was tested, and the “glucagon-like activity in vitro” value was “no glucagon-like activity”.
